{
  "source": "ChEMBL document CHEMBL5331060",
  "about": "“Bisindole natural products: A vital source for the development of new anticancer drugs” (Eur J Med Chem, 2022)",
  "key": {"[1]": {"system": "K562", "experiment": "Antiproliferative activity against human K562 cells assessed as inhibition of cell growth incubated for 48 hrs by WST-1 assay", "type": "functional, cell-based", "settings": "K562, 48 h"}, "[2]": {"system": "HL-60", "experiment": "Antiproliferative activity against human HL-60 cells assessed as inhibition of cell growth incubated for 48 hrs by WST-1 assay", "type": "functional, cell-based", "settings": "HL-60, 48 h"}, "[3]": {"system": "SMMC-7721", "experiment": "Antiproliferative activity against human SMMC-7721 cells assessed as inhibition of cell growth incubated for 48 hrs by MTS assay", "type": "functional, cell-based", "settings": "SMMC-7721, 48 h"}, "[4]": {"system": "A549", "experiment": "Antiproliferative activity against human A549 cells assessed as inhibition of cell growth incubated for 48 hrs by MTS assay", "type": "functional, cell-based", "settings": "A549, 48 h"}, "[5]": {"system": "MCF7", "experiment": "Antiproliferative activity against human MCF7 cells assessed as inhibition of cell growth incubated for 48 hrs by MTS assay", "type": "functional, cell-based", "settings": "MCF7, 48 h"}, "[6]": {"system": "SW480", "experiment": "Antiproliferative activity against human SW480 cells assessed as inhibition of cell growth incubated for 48 hrs by MTS assay", "type": "functional, cell-based", "settings": "SW480, 48 h"}, "[7]": {"system": "HL-60", "experiment": "Antiproliferative activity against human HL-60 cells assessed as inhibition of cell growth incubated for 48 hrs by MTS assay", "type": "functional, cell-based", "settings": "HL-60, 48 h"}, "[8]": {"system": "HeLa", "experiment": "Antiproliferative activity against human HeLa cells assessed as inhibition of cell growth incubated for 24 hrs", "type": "functional, cell-based"}, "[9]": {"system": "HeLa", "experiment": "Antiproliferative activity against human HeLa cells assessed as inhibition of cell growth incubated for 6 hrs", "type": "functional, cell-based"}, "[10]": {"system": "MCF7", "experiment": "Antiproliferative activity against human MCF7 cells assessed as inhibition of cell growth incubated for 24 hrs by MTT assay", "type": "functional, cell-based", "settings": "MCF7, 24 h"}, "[11]": {"experiment": "Antiproliferative activity against vincristine-resistant human KB cells assessed as inhibition of cell growth", "type": "functional, cell-based"}, "[12]": {"system": "KB", "experiment": "Antiproliferative activity against drug-sensitive human KB cells assessed as inhibition of cell growth", "type": "functional, cell-based"}, "[13]": {"system": "LoVo", "experiment": "Antiproliferative activity against human LoVo cells assessed as inhibition of cell growth by MTT assay", "type": "functional, cell-based"}, "[14]": {"system": "MCF7", "experiment": "Antiproliferative activity against human MCF7 cells assessed as inhibition of cell growth by MTT assay", "type": "functional, cell-based"}, "[15]": {"system": "HepG2", "experiment": "Antiproliferative activity against human HepG2 cells assessed as inhibition of cell growth by MTT assay", "type": "functional, cell-based"}, "[16]": {"system": "HeLa", "experiment": "Antiproliferative activity against human HeLa cells assessed as inhibition of cell growth incubated for 48 hrs by MTT assay", "type": "functional, cell-based"}, "[17]": {"system": "MCF7", "experiment": "Antiproliferative activity against human MCF7 cells assessed as inhibition of cell growth incubated for 48 hrs by MTT assay", "type": "functional, cell-based", "settings": "MCF7, 48 h"}, "[18]": {"system": "HT-29", "experiment": "Antiproliferative activity against human HT-29 cells assessed as inhibition of cell growth incubated for 48 hrs by MTS assay", "type": "functional, cell-based", "settings": "HT-29, 48 h"}, "[19]": {"system": "SW480", "experiment": "Antiproliferative activity against human SW480 cells assessed as inhibition of cell growth incubated for 48 hrs by MTT assay", "type": "functional, cell-based", "settings": "SW480, 48 h"}, "[20]": {"system": "A549", "experiment": "Antiproliferative activity against human A549 cells assessed as inhibition of cell growth incubated for 72 hrs by SRB assay", "type": "functional, cell-based", "settings": "A549, 72 h"}, "[21]": {"system": "MCF7", "experiment": "Antiproliferative activity against human MCF7 cells assessed as inhibition of cell growth incubated for 72 hrs by SRB assay", "type": "functional, cell-based", "settings": "MCF7, 72 h"}, "[22]": {"system": "HCT-116", "experiment": "Cytotoxicity against human HCT-116 cells assessed as reduction in cell viability at 20 uM measured after 48 hrs by MTS assay relative to control", "type": "functional"}, "[23]": {"system": "KB", "experiment": "Antiproliferative activity against human KB cells assessed as inhibition of cell growth incubated for 72 hrs by neutral red based colorimetric assay", "type": "functional"}},
  "data": [
    {"molecule": "CC[C@]12C=CCN3CC[C@@]4(c5cc([C@@]6(C(=O)OC)C[C@@H]7CC(=O)N(CCc8c6[nH]c6ccccc86)C7)c(OC)cc5N(C)[C@H]4[C@@](O)(C(=O)OC)C1)[C@@H]32", "values": [
      {"measurement": "IC50", "setting": "[1]", "value": 9.3, "unit": "µM"},
      {"measurement": "IC50", "setting": "[2]", "value": 9.1, "unit": "µM"}
    ]},
    {"molecule": "CC[C@]12C=C([C@@H]3C=C[C@@]4(CC)CC(C(=O)OC)=C5Nc6ccccc6[C@@]56CCN3[C@@H]46)[C@@H](CC(C)=O)N3CC[C@]4(C(=C(C(=O)OC)C1)Nc1ccccc14)[C@@H]32", "values": [
      {"measurement": "IC50", "setting": "[3]", "value": 13.1, "unit": "µM"},
      {"measurement": "IC50", "setting": "[4]", "value": 13.1, "unit": "µM"},
      {"measurement": "IC50", "setting": "[5]", "value": 13.1, "unit": "µM"},
      {"measurement": "IC50", "setting": "[6]", "value": 13.1, "unit": "µM"},
      {"measurement": "IC50", "setting": "[7]", "value": 13.1, "unit": "µM"}
    ]},
    {"molecule": "NC[C@@H](NC(=O)C(=O)c1c[nH]c2ccccc12)c1c[nH]c2cc(Br)ccc12", "values": [
      {"measurement": "IC50", "setting": "[8]", "value": "> 200", "unit": "µM"},
      {"measurement": "IC50", "setting": "[9]", "value": "> 200", "unit": "µM"}
    ]},
    {"molecule": "O=C1C[C@@H]2c3cc(O)c(O)cc3[C@@]3(Nc4ccccc4C3=O)[C@@]23C(=O)c2ccccc2N13", "values": [
      {"measurement": "IC50", "setting": "[10]", "value": 32.2, "unit": "µM"}
    ]},
    {"molecule": "C/C=C1/CN2[C@H]3Cc4c([nH]c5ccc(O)c([C@H]6Cn7c8c(c9ccccc97)CCN7CC=C[C@@]6(CC)[C@H]87)c45)[C@@H]2C[C@@H]1[C@]3(CO)C(=O)OC", "values": [
      {"measurement": "IC50", "setting": "[11]", "value": 0.57, "unit": "µM"},
      {"measurement": "IC50", "setting": "[12]", "value": 0.57, "unit": "µM"}
    ]},
    {"molecule": "N[C@H](CNC(=O)C(=O)c1c[nH]c2ccccc12)c1c[nH]c2cc(Br)ccc12", "values": [
      {"measurement": "IC50", "setting": "[8]", "value": 146, "unit": "µM"},
      {"measurement": "IC50", "setting": "[9]", "value": 165, "unit": "µM"}
    ]},
    {"molecule": "O=C1C[C@H]2c3ccc(O)c(O)c3[C@]3(Nc4ccccc4C3=O)[C@]23C(=O)c2ccccc2N13", "values": [
      {"measurement": "IC50", "setting": "[10]", "value": 78.5, "unit": "µM"}
    ]},
    {"molecule": "CC[C@]12C=C([C@H]3C=C[C@@]4(CC)CC(C(=O)OC)=C5Nc6ccccc6[C@@]56CCN3[C@@H]46)CN3CC[C@]4(C(=C(C(=O)OC)C1)Nc1ccccc14)[C@@H]32", "values": [
      {"measurement": "IC50", "setting": "[3]", "value": 13.1, "unit": "µM"},
      {"measurement": "IC50", "setting": "[4]", "value": 13.1, "unit": "µM"},
      {"measurement": "IC50", "setting": "[5]", "value": 13.1, "unit": "µM"},
      {"measurement": "IC50", "setting": "[6]", "value": 13.1, "unit": "µM"},
      {"measurement": "IC50", "setting": "[7]", "value": 13.1, "unit": "µM"}
    ]},
    {"molecule": "CC[C@]12C=C[C@H](C3=C[C@@]4(CC)CC(C(=O)OC)=C5Nc6ccccc6[C@@]56CCN([C@@H]3CC(C)=O)[C@@H]46)N3CC[C@]4(C(=C(C(=O)OC)C1)Nc1ccccc14)[C@@H]32", "values": [
      {"measurement": "IC50", "setting": "[3]", "value": 13.1, "unit": "µM"},
      {"measurement": "IC50", "setting": "[4]", "value": 13.1, "unit": "µM"},
      {"measurement": "IC50", "setting": "[5]", "value": 13.1, "unit": "µM"},
      {"measurement": "IC50", "setting": "[6]", "value": 13.1, "unit": "µM"},
      {"measurement": "IC50", "setting": "[7]", "value": 13.1, "unit": "µM"}
    ]},
    {"molecule": "CC[C@@H]1C[C@H]2C[C@](C(=O)OC)(c3cc4c(cc3OC)N(C)[C@H]3[C@@](O)(C(=O)OC)[C@H](OC(C)=O)[C@]5(CC)C=CCN6CC[C@]43[C@@H]65)c3[nH]c4ccccc4c3CC[N+]([O-])(C1)C2", "values": [
      {"measurement": "IC50", "setting": "[13]", "value": 65.2, "unit": "µM"},
      {"measurement": "IC50", "setting": "[14]", "value": 51.3, "unit": "µM"},
      {"measurement": "IC50", "setting": "[15]", "value": 38.2, "unit": "µM"}
    ]},
    {"molecule": "CC[C@@]12C=C(C(=O)OC)C3Nc4cc(OC)c(O)cc4[C@@]34CCN([C@@H]3c5cc6c(cc5O[C@@H]3[C@H]1O)NC1=C(C(=O)OC)C[C@]3(CC)[C@@H]5O[C@@H]5CN5CC[C@@]16[C@@H]53)[C@@H]24", "note": "(some centres not stated)", "values": [
      {"measurement": "IC50", "setting": "[3]", "value": "> 40", "unit": "µM"},
      {"measurement": "IC50", "setting": "[16]", "value": 1.42, "unit": "µM"},
      {"measurement": "IC50", "setting": "[4]", "value": "> 40", "unit": "µM"},
      {"measurement": "IC50", "setting": "[17]", "value": 1.42, "unit": "µM"},
      {"measurement": "IC50", "setting": "[18]", "value": "> 40", "unit": "µM"},
      {"measurement": "IC50", "setting": "[19]", "value": 1.42, "unit": "µM"}
    ]},
    {"molecule": "CC[C@@H]1CN(C)[C@H]2Cc3c([nH]c4ccccc34)[C@H](c3cc4c5c([nH]c4cc3OC)[C@@]3(C(=O)OC)C[C@H]4C[C@@H](CC)[C@@H]3N(CC5)[C@H]4CC(C)=O)C[C@H]1[C@@H]2C(=O)OC", "values": [
      {"measurement": "IC50", "setting": "[20]", "value": "< 10", "unit": "µM"},
      {"measurement": "IC50", "setting": "[21]", "value": "< 10", "unit": "µM"},
      {"measurement": "Activity", "setting": "[22]", "value": 70, "unit": "%"}
    ]},
    {"molecule": "C/C=C1/CN2CC[C@@]34c5cc(OC)c(-c6cc7c8c(n(C)c7cc6OC)[C@@H]6[C@H]7O[C@@H](C)[C@H](CN6C(=O)C(C)C)[C@H]7[C@H]8C(=O)OC)c(C)c5N(C)[C@@]23CC[C@H]1[C@H]4C(=O)OC", "values": [
      {"measurement": "IC50", "setting": "[23]", "value": 6, "unit": "µM"}
    ]},
    {"molecule": "CC[C@@]12CC(C(=O)OC)=C3Nc4cc5c(cc4[C@@]34CCN(C[C@H]3O[C@H]31)[C@@H]24)[C@@H]1[C@H](O5)[C@@H](O)[C@@]2(CC)CC(C(=O)OC)=C3Nc4c(cc(O)c(OC)c4OC)[C@@]34CC[N+]1([O-])[C@@H]24", "note": "(some centres not stated)", "values": [
      {"measurement": "IC50", "setting": "[16]", "value": 1.42, "unit": "µM"},
      {"measurement": "IC50", "setting": "[17]", "value": 1.42, "unit": "µM"},
      {"measurement": "IC50", "setting": "[19]", "value": 1.42, "unit": "µM"}
    ]},
    {"molecule": "C/C=C1/CN2CC[C@@]34c5cc(OC)c(-c6cc7c8c(n(C)c7cc6OC)[C@@H]6[C@H]7O[C@@H](C)[C@H](CN6C(=O)C(C)C)[C@H]7[C@H]8C(=O)OC)c(C)c5N[C@@]23CC[C@H]1[C@H]4C(=O)OC", "values": [
      {"measurement": "IC50", "setting": "[23]", "value": 5, "unit": "µM"}
    ]}
  ]
}
